Laboratory results published in patent US20120121591A1 (priority 2009, published 2012).
Read-outs that look alike come from different tables or passages of the source. Positions of bridges follow the written chain, without caps; N, C: chain ends. Non-standard residues stand in square brackets, D forms with d. Residues, ends and D or L forms follow the SMILES beside them. Nva = CCC[C@H](N)C(=O)O

Columns and labels:
hKv1.1 = hKv1.1 (Homo sapiens, UniProt Q09470); test: cell-based; conditions: Kv1.1 (IWQ) IC50 (nM, Avg)
Sequence of hKv1.1 (Q09470 whole entry): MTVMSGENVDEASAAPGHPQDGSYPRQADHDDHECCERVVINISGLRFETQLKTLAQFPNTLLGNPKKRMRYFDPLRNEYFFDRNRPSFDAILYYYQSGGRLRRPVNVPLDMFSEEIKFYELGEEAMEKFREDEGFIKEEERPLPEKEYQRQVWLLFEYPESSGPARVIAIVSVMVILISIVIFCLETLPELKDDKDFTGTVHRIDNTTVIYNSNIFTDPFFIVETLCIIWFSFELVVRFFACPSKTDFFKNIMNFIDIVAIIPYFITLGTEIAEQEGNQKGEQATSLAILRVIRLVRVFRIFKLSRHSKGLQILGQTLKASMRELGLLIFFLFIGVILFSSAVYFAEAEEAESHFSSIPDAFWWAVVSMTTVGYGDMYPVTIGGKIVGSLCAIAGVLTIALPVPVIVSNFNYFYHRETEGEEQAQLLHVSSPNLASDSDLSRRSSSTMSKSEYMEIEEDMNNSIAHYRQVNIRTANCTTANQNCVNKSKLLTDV

[1] = system: IL-2 secretion from T cells in human whole blood; format: cell-based
[2] = system: IFN-g secretion from T cells in human whole blood; format: cell-based
hKv1.3 [3] = target: T1, hKv1.3 (Homo sapiens, UniProt P22001); test: cell-based; format: cell-based; conditions: for IC50: Kv1.3 (IWQ) IC50 (nM, Avg)
T1 sequence (P22001 whole entry): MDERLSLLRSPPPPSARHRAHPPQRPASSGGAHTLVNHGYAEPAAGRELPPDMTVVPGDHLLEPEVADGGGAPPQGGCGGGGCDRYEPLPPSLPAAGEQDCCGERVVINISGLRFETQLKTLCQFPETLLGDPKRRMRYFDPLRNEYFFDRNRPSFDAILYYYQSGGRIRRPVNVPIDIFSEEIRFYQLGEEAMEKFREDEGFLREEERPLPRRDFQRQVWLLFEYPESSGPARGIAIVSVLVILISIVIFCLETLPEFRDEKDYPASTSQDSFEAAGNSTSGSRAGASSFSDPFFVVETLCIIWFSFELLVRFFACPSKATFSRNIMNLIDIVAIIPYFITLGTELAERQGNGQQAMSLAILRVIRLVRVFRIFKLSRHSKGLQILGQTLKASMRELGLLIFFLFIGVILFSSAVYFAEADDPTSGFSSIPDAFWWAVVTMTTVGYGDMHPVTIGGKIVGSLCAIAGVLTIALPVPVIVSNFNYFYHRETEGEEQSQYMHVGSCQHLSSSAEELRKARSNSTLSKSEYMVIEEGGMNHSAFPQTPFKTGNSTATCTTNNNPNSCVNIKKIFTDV

hKv1.3 [4] = target: T1, hKv1.3; test: cell-based
[5] = format: in vivo, rat
From the text: Single subcutaneous doses were delivered to animals and serum was collected at various time points after injection. Studies in rats, dogs (beagles), and cynomolgus monkeys involved two to three animals per dose group, with blood and serum collection occurring at various time points over the course of the study. Male Sprague-Dawley (SD) rats (about 0.3 kg), male beagles (about 10 kg) and male cynomolgus monkeys (about 4 kg) were used in the studies described herein (n=3 animals per dose group). Approximately 5 male CD-1 mice were used per dose and time point in our mouse pharmacokinetic studies. Serum samples were stored frozen at −80° C., until analysis in an enzyme-linked immunosorbent assay (ELISA).
Single subcutaneous doses were delivered to animals and serum was collected at various time points after injection. Three animals were used per dose group, with blood and serum collection occurring at various time points over the course of the study. Serum samples were stored frozen at −80° C., until analysis in an enzyme-linked immunosorbent assay (ELISA). […] A brief description of these ELISA protocols is provided: […]

hKv1.5 = hKv1.5 (Homo sapiens, UniProt P22460); conditions: read-out: Kv1.5 IC50; PatchXpress
Sequence of hKv1.5 (P22460 whole entry): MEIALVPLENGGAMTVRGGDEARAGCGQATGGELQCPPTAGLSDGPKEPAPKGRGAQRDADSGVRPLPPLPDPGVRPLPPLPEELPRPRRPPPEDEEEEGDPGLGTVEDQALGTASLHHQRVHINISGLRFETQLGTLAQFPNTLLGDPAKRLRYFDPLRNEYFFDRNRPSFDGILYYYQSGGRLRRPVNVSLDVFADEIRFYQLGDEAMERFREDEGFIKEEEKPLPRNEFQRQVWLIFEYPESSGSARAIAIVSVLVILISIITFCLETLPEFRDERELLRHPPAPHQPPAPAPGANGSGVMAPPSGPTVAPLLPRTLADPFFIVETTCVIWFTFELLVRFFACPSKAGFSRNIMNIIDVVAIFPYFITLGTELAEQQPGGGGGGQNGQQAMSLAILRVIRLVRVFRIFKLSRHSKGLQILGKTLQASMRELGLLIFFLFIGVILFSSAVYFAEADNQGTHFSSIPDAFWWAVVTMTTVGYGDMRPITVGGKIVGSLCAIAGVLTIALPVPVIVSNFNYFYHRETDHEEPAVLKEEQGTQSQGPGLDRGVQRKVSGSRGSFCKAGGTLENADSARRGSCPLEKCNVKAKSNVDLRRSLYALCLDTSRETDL

human Kv1.3 = human Kv1.3 (Homo sapiens, UniProt P22001); format: cell-based; conditions: read-out: Kv1.3 IC50, whole cell patch clamp
Sequence of human Kv1.3 (P22001 whole entry): as the sequence (P22001 whole entry) above

[6] = system: rat T effector memory cell line, PAS; format: cell-based; conditions: read-out: IC50 inhibition of myelin-specific proliferation of PAS T cells
hKv1.2 = hKv1.2 (Homo sapiens, UniProt P16389); format: cell-based; conditions: PatchXpress; read-out: Kv1.2 IC50
Sequence of hKv1.2 (P16389 whole entry): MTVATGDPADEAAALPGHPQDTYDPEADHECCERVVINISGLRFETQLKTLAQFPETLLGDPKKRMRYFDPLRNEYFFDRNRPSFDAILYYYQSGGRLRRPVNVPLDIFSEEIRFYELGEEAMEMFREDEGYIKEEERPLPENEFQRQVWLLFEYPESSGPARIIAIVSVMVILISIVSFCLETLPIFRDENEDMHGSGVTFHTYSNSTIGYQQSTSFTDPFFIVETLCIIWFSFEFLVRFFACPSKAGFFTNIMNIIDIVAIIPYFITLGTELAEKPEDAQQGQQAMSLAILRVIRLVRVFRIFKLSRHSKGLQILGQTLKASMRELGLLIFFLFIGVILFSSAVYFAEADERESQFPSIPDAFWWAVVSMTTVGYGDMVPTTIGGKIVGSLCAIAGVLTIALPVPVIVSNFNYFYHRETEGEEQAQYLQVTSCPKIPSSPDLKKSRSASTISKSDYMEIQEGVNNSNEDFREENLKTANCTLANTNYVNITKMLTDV
Experimental: (§1) Kv1.1, Kv1.2, Kv1.3, Kv1.4, Kv1.6 and Kv1.7, PatchXpress®, planar patch-clamp electrophysiology. Ion channel currents were recorded at room temperature using PatchXpress® 7000A electrophysiology system from MDC using methods and cells described in Example 1 above.

hKv1.6 = hKv1.6 (Homo sapiens, UniProt P17658); format: cell-based; conditions: PatchXpress; read-out: Kv1.6 IC50
Sequence of hKv1.6 (P17658 whole entry): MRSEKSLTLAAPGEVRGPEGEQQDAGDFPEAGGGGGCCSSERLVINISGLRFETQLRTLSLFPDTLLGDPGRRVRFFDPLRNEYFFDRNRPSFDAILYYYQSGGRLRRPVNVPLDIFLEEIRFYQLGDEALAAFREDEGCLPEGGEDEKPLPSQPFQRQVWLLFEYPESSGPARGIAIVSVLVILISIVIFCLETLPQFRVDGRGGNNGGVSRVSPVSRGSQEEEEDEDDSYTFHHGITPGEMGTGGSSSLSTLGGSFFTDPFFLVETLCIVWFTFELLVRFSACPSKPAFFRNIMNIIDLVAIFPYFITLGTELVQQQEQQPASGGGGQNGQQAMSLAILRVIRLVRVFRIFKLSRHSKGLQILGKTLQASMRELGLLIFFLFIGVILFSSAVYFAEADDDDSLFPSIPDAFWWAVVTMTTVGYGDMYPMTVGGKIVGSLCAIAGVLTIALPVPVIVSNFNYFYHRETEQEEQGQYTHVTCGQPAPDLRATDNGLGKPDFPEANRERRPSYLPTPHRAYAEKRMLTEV
Experimental: as §1

hKv1.4 = hKv1.4 (Homo sapiens, UniProt P22459); format: cell-based; conditions: PatchXpress; read-out: Kv1.4 IC50
Sequence of hKv1.4 (P22459 whole entry): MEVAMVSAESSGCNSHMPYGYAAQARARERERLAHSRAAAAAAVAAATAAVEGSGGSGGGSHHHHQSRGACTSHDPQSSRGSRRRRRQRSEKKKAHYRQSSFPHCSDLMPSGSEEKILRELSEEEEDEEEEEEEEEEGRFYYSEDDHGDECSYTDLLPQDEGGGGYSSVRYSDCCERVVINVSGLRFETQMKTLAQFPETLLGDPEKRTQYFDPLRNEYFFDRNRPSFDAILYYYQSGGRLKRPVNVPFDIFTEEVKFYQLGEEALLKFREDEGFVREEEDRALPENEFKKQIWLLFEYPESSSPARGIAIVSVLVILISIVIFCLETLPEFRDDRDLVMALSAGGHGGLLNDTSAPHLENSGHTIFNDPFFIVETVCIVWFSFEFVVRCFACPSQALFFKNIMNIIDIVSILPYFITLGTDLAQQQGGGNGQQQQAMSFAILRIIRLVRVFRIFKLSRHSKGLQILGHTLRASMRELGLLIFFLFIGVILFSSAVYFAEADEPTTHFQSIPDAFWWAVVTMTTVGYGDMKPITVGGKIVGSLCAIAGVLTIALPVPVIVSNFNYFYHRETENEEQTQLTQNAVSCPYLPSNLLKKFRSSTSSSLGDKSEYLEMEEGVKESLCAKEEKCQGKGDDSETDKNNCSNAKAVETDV
Experimental: as §1

hKv1.7 = hKv1.7 (Homo sapiens, UniProt Q96RP8); format: cell-based; conditions: PatchXpress; read-out: Kv1.7 IC50
Sequence of hKv1.7 (Q96RP8 whole entry): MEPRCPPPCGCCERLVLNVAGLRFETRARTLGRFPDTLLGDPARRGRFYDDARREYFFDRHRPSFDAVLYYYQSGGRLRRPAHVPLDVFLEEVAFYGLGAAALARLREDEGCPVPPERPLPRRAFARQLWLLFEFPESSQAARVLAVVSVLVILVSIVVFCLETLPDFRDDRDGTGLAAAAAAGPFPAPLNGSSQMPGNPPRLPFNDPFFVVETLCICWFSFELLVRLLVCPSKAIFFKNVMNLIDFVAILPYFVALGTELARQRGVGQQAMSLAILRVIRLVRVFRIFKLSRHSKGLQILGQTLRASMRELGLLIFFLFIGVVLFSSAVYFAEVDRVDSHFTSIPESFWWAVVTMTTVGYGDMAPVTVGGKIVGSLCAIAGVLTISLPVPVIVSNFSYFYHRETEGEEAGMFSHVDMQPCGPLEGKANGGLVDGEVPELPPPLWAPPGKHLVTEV
Experimental: as §1

[7] = read-out: WB (IL-2) IC50 (nM, Avg)
[8] = read-out: WB (IFNg) IC50 (nM, Avg)
[9] = Sprague-Dawley rats, single SC 6 mg/kg

Molecule: CCC[C@@H]1NC(=O)[C@H](CO)NC(=O)[C@H]([C@@H](C)O)NC(=O)[C@H](CCCNC(=N)N)NC(=O)[C@@H]2CSSC[C@@H]3NC(=O)[C@H]([C@@H](C)O)NC(=O)[C@H](CCCCN)NC(=O)[C@H](CCCNC(=N)N)NC(=O)[C@H](CSSC[C@H](NC(=O)[C@H](CCC(=O)O)NC(=O)[C@H](CO)NC(=O)[C@H](C(C)C)NC(=O)[C@@H]4CCCN4C(=O)[C@H]([C@@H](C)CC)NC(=O)[C@H](CC(C)C)NC(=O)[C@H](CC(=O)O)NC(=O)[C@H](CCCCN)NC(=O)[C@@H](NC(=O)[C@@H](NC(=O)[C@@H](N)CCCNC(=N)N)[C@@H](C)O)CSSC[C@@H](C(N)=O)NC(=O)[C@H](CO)NC(=O)CNC3=O)C(=O)N[C@@H]([C@@H](C)O)C(=O)N[C@@H](CC(=O)O)C(=O)N[C@@H]([C@@H](C)CC)C(=O)N[C@@H](CCCCN)C(=O)N2)NC(=O)[C@H](CC(C)C)NC(=O)[C@H](CC(N)=O)NC(=O)[C@H](CC(C)C)NC(=O)[C@H](CCCNC(=N)N)NC(=O)[C@H](Cc2ccc(O)cc2)NC(=O)[C@H](CCCCN)NC1=O [[Lys16, Nva21]HmK-amide] (H-RTCKDLIPVSECTDIKCRTS[Nva]KYRLNLCRKTCGSC-NH2; disulfide 3-35, 12-28, 17-32)
- IC50 (hKv1.1): 0.58 nM
- WB (IL-2) Potency Relative to ShK [1]: 148.53
- IC50 [1, 7]: 6.39 nM
- WB (IFNg) Potency Relative to ShK [2]: 188.96
- IC50 [2, 8]: 9.83 nM
- Kv1.1/Kv1.3 Selectivity Ratio (hKv1.3 [3]): 0.025
- IC50 (hKv1.3 [3]): 23 nM

Molecule: CC[C@H](C)[C@@H]1NC(=O)[C@@H](NC(=O)[C@H](CO)NC(=O)[C@@H](N)CCCNC(=N)N)CSSC[C@@H](C(=O)N[C@@H](C)C(=O)O)NC(=O)[C@H]([C@@H](C)O)NC(=O)CNC(=O)[C@@H]2CSSC[C@@H]3NC(=O)[C@H](CCCCN)NC(=O)[C@H](Cc4ccccc4)NC(=O)[C@H](C)NC(=O)[C@H]([C@@H](C)O)NC(=O)[C@H](CSSC[C@H](NC(=O)[C@H](Cc4ccccc4)NC(=O)[C@H](CO)NC(=O)[C@H](CC(C)C)NC(=O)[C@H](CCCNC(=N)N)NC(=O)[C@H](Cc4ccc(O)cc4)NC(=O)[C@H](CCCCN)NC(=O)[C@H](CCSC)NC(=O)[C@H](CO)NC(=O)[C@H](Cc4c[nH]cn4)NC(=O)[C@H](CCCCN)NC3=O)C(=O)N[C@@H](CCCNC(=N)N)C(=O)N[C@@H](CCCCN)C(=O)N[C@@H]([C@@H](C)O)C(=O)N2)NC(=O)[C@H](CCCNC(=N)N)NC(=O)[C@H](CO)NC(=O)[C@H](CCCCN)NC(=O)[C@@H]2CCCN2C(=O)[C@H]([C@@H](C)CC)NC(=O)[C@H]([C@@H](C)O)NC(=O)[C@H](CC(=O)O)NC1=O [[Lys16]ShK-Ala]
- IC50 ([1]; read-out: IC50 blocking IL-2 secretion from human whole blood): 0.138 nM
- IC50 ([1]; read-out: WB (IL-2) IC50): 0.138 nM
- IC50 [1, 7]: 0.138 nM
- IC50 ([2]; read-out: WB (IFNg) IC50): 0.266 nM
- IC50 [2, 8]: 0.266 nM
- IC50 (hKv1.3 [4]): 0.06 nM
- IC50 (hKv1.3 [3]): 9.5 nM

Molecule: Monovalent aKLH HC-ShK(1-35 Q16K) Ab: anti-KLH IgG2 antibody with [Lys16]ShK fused to the C-terminus of one heavy chain
- IC50 ([1]; read-out: WB (IL-2) IC50): 0.292 nM
- Exposure (AUC0-inf) normalized for MW, times greater than ShK-L5 ([5]; 150 kDa//4 kDa): about 163 times
- AUC0-t [5, 9]: 481 ± 157 µg·h/mL
- Cmax [5, 9]: 5890 ± 1770 ng/mL
- HL [5, 9]: 32 ± 13.9 h
- Tmax [5, 9]: 32 ± 13.9 h
- IC50 ([2]; read-out: WB (IFNg) IC50): 0.657 nM
- IC50 (hKv1.5): > 10000 nM
- IC50 (human Kv1.3): 0.354 nM
- IC50 [6]: 0.839 nM
- IC50 (hKv1.2): 7970 nM
- IC50 (hKv1.6): > 616 nM
- IC50 (hKv1.4): > 10000 nM
- IC50 (hKv1.7): > 10000 nM
